In general, AUC(0-t) refers to exposure summed from dosing to a finite time, without extrapolation to infinity. Read a low AUC(0-t) as less exposure.

A short description of the data set: clinical. As to conditions: male, human, in vivo, sc, 7.5 mg.

Procedure: An 8‐week, open‐label, single‐arm study was performed with the objective of evaluating safety, tolerability, and PK following a single dose of 7.5 mg Gel‐LA in surgically castrated men with advanced PCa. Testosterone levels were not evaluated for this study population.
Men aged 45‐85 years with histologically or cytologically proven adenocarcinoma of the prostate who had undergone bilateral orchiectomy at least 2 months prior to study start were eligible. […]
All patients received a single dose of 7.5 mg LA suspended in the ATRIGEL Delivery System (34% w/w Poly [DL‐lactide‐co‐glycolide] and 66% w/w N‐methyl‐2‐pyrrolidone) as a subcutaneous injection into the upper right or upper left quadrant of the abdomen. […] LA concentrations were determined with solid‐phase extraction and high‐performance liquid chromatography followed by radioimmunoassay. […]
Serum concentrations of LA were summarized as mean, standard deviation (SD), % relative SD, median, minimum, and maximum levels. PK parameters included the maximum observed LA concentration (Cmax), time of maximum serum concentration (Tmax), time of last measured LA concentration in serum (tldc), and area under the LA serum concentration vs time curve (AUC). AUC was determined by linear trapezoidal interpolation, and actual times of blood draws were used for the PK analyses. […]

Turning to `CCNC(=O)[C@@H]1CCCN1C(=O)[C@H](CCCNC(=N)N)NC(=O)[C@H](CC(C)C)NC(=O)[C@@H](CC(C)C)NC(=O)[C@H](Cc1ccc(O)cc1)NC(=O)[C@H](CO)NC(=O)[C@H](Cc1c[nH]c2ccccc12)NC(=O)[C@H](Cc1c[nH]cn1)NC(=O)[C@@H]1CCC(=O)N1` [Leuprolide Acetate, Leuprolide acetate], the AUC(0-t) is 999 ng·h/mL.

The values are drawn from publication PMC8988824, “Subcutaneous in situ gel delivered leuprolide acetate's consistent and prolonged drug delivery maintains effective testosterone suppression independent of age and weight in men with prostate cancer” (BJUI Compass, 2020).
